Experimental data taken from patent publication US20060194698A1, “Use of herbs as a delivery system for bioactive phytochemicals” (priority 2003, published 2006).

How the values were obtained:
[1] = test system: Alternaria; assay: Essential oil components against Alternaria growth (saturated cotton swab suspended above culture); assay type: cell-based; conditions: pure essential oil component
Protocol: Antifungal activity of the essential oil components against Rhizoctonia and Pythium will be tested by means previously used to evaluate Alternaria growth. Briefly, a cotton swab saturated with the oil is suspended above a culture of the test pathogen. Fungal dry weight is then determined. Appropriate controls are performed.

[2] = test system: Sclerotinia; assay: Essential oil components / ground herbage against Sclerotinia and its sclerotia; assay type: cell-based; conditions: pure essential oil component

| Structure (SMILES) | growth of Alternaria [1] | activity against the sclerotia of Sclerotinia [2] | growth of Sclerotinia [2] |
| --- | --- | --- | --- |
| Cc1ccc(C(C)C)cc1O [carvacrol] | completely inhibit growth | inhibitory activity | completely inhibit growth |
| Cc1ccc(C(C)C)cc1 [cymene, p-cymene] | reduce the growth |  |  |
| CC(C)=CCC/C(C)=C/CO [geraniol] | completely inhibit growth | inhibitory activity | completely inhibit growth |
| C=C(C)[C@H]1CC=C(C)CC1 [limonene] | inhibit the growth of Alternaria, but not as effectively as cymene |  |  |
| Cc1ccc(C(C)C)c(O)c1 [thymol] | completely inhibit growth | inhibitory activity | completely inhibit growth |
